Laboratory results taken from PubChem BioAssay AID2060900 (Molecular Pharmacology Branch, DTP, NCI, 2025).
One block for each compound: values may come before it.

System: 521955-158-R2-J5-PDC complex spheroids, viability
Test: Anticancer human tumor 521955-158-R2-J5-PDC patient-derived pancreatic carcinoma cell line growth inhibition [RAS]
Settings: for IC50: curve of first compound; for viability, T/C: stronger effect = lower value
Excerpt: RAS pathway inhibitors in Combinations in Complex Spheroids
A high-throughput screen of multi-cell type tumor spheroids was designed to identify active combinations of RAS pathway inhibitors and targeted small molecules. Complex spheroids include a stromal component modeled by human endothelial cells (HUVEC) and fibroblasts modeled by human mesenchymal stem cells (MSCs). The concentration ranges selected for each drug and investigational agent were based upon clinically achievable concentrations if the clinical Cmax of the agent was known.
Compounds. The drugs and investigational agents: abemaciclib (NSC768073), cobimetinib (NSC768068), divarasib (GDC6063, NSC841802), docetaxel (NSC628503), GDC-1971 (RLY-1971, NSC841576), gemcitabine (NSC613327), inavolisib (NSC800729), ipatasertib (NSC767898), KB-0742 (NSC834161), MRTX-1133 (NSC836407), osimertinib (NSC779217), RMC-4630 (NSC839698), RMC-6236 (NSC851965), RMC-6291 (NSC852671), Ro-3306 (NSC812927), sapanisertib (NSC764658), SN-38 (NSC673596), staurosporine (NSC755774), SY5609 (NSC837396), and tovorafenib (DAY101, NSC766906), were obtained from the National Cancer Institute (NCI) Developmental Therapeutics Program Chemical Repository. The FDA-approved anticancer drug set is available from the NCI Developmental Therapeutics Program. […] The stock solutions were prepared in dimethyl sulfoxide (DMSO, Sigma-Aldrich, St. Louis, MO, cat. D2650) at 800-fold the tested concentration and stored at -70 degrees C prior to their use. All drugs and investigational agents were tested over a range starting from a high concentration at or near the clinical Cmax and decreasing in half-log increments. If the clinical Cmax for an agent had not been determined, the highest concentration tested was 10 microM.
Cell Culture. All cells were maintained in an incubator at 37 degrees C and 5% CO2 with 95% humidity. The PDC lines were cultured according to standard operating procedures established by the NCI PDMR. All PDCs were thawed and cultured in Matrigel-coated flasks prepared with a working solution of 1X Ham's F-12 nutrient mix, without supplementation (Invitrogen, Waltham, MA, cat. 11765054), 100 U/mL penicillin-streptomycin (Invitrogen, cat. 15140122), and 2.5% Matrigel (Corning Inc., Corning, NY, cat. 354248) for the first three passages. The 362531-283-R-J2-PDC and 782815-120-R-J1-PDC lines were cultured in 6C/Colon 1B media, which includes advanced DMEM/F-12 (Thermo Fisher Scientific, cat. 12634028), 10 mM HEPES (Thermo Fisher Scientific, cat. 15630080), 1X GlutaMAX supplement (Thermo Fisher Scientific, cat. 35050061), 0.1 mg/mL primocin (InvivoGen, San Diego, CA, cat. ant-pm-2), 10% defined fetal bovine serum, heat inactivated (HyClone Laboratories Inc., Logan, UT, cat. SH30070.03HI), 50% L-WRN conditioned media (ATCC, cat. CRL-3276), 1.25 mM N-Acetyl-L-cysteine (Sigma-Aldrich, cat. A9165), 10 mM nicotinamide (Sigma-Aldrich, cat. N0636), 1X B-27 supplement (Thermo Fisher Scientific, cat. 17504044), 1X N-2 supplement (Thermo Fisher Scientific, cat. 17502048), 50 ng/mL human EGF (Thermo Fisher Scientific, cat. PHG0311), and 10 microM Y-27632 dihydrochloride (Tocris Bioscience, cat. 1254). The K12877-001-R-J1-PDC line was cultured in 6I media, which includes all 6C/Colon 1B media plus 10 ng/mL human FGF-10 (PeproTech, cat. 100-26), 1 ng/mL human FGF-2 (PeproTech, cat. 100-18B), 1 µM prostaglandin E2 (Tocris Bioscience, cat. 2296), […] hydrocortisone (Sigma-Aldrich, cat. H4001), and […] bovine insulin (Sigma-Aldrich, cat. I6634). The K86415-001-R-J1-PDC line was cultured in 6D media, which includes all 6C/Colon 1B media components minus the L-WRN conditioned media. The 485176-168-R4-J1-PDC was cultured in PANC media, which includes all 6C/Colon 1B media plus 100 ng/mL human FGF-10 (PeproTech, cat. 100-26), 500 nM SB-431542 (Selleckchem, cat. S1067), and 10 nM gastrin (Tocris Bioscience, cat. 3006). […]

[1] = second compound 0.0316 µM, first compound 0.0316 µM
[2] = second compound 0.0316 µM, first compound 0.1 µM
[3] = second compound 0.1 µM, first compound 0.0316 µM
[4] = second compound 0.1 µM, first compound 0.1 µM
[5] = second compound 0.316 µM, first compound 0.0316 µM
[6] = second compound 0.316 µM, first compound 0.1 µM
[7] = second compound 1 µM, first compound 0.0316 µM
[8] = second compound 1 µM, first compound 0.1 µM
[9] = second compound 3.16 µM, first compound 0.0316 µM
[10] = second compound 3.16 µM, first compound 0.1 µM
[11] = second compound 10 µM, first compound 0.0316 µM
[12] = second compound 10 µM, first compound 0.1 µM
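Also: compound exposure lasted seven days before the viability read.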
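For viability, T/C in this document: spheroids also contain HUVEC endothelial cells and mesenchymal stem cells as stroma.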

IC50 (second compound 0.0316 µM): 1.97 nM
IC50 (second compound 0.1 µM): 1.08 nM
IC50 (second compound 0.316 µM): < 0.316 nM
IC50 (second compound 1 µM): < 0.316 nM
IC50 (second compound 3.16 µM): < 0.316 nM
IC50 (second compound 10 µM): < 0.316 nM
Structure (SMILES): CC(C)n1nc(-c2ccc3oc(N)nc3c2)c2c(N)ncnc21 + C#Cc1c(F)ccc2cc(O)cc(-c3ncc4c(N5CC6CCC(C5)N6)nc(OCC56CCCN5CC(F)C6)nc4c3F)c12
viability, T/C (second compound 0.0316 µM, first compound 0.000316 µM): 83.6%
viability, T/C (second compound 0.0316 µM, first compound 0.001 µM): 58.1%
viability, T/C (second compound 0.0316 µM, first compound 0.00316 µM): 46.7%
viability, T/C (second compound 0.0316 µM, first compound 0.01 µM): 27.2%
viability, T/C [1]: 20.3%
viability, T/C [2]: 16.5%
viability, T/C (second compound 0.1 µM, first compound 0.000316 µM): 51.2%
viability, T/C (second compound 0.1 µM, first compound 0.001 µM): 51.9%
viability, T/C (second compound 0.1 µM, first compound 0.00316 µM): 40.8%
viability, T/C (second compound 0.1 µM, first compound 0.01 µM): 22.4%
viability, T/C [3]: 12.6%
viability, T/C [4]: 12.4%
viability, T/C (second compound 0.316 µM, first compound 0.000316 µM): 42.1%
viability, T/C (second compound 0.316 µM, first compound 0.001 µM): 56.1%
viability, T/C (second compound 0.316 µM, first compound 0.00316 µM): 40.2%
viability, T/C (second compound 0.316 µM, first compound 0.01 µM): 24.4%
viability, T/C [5]: 13.6%
viability, T/C [6]: 8.05%
viability, T/C (second compound 1 µM, first compound 0.000316 µM): 49.6%
viability, T/C (second compound 1 µM, first compound 0.001 µM): 45.1%
viability, T/C (second compound 1 µM, first compound 0.00316 µM): 40.4%
viability, T/C (second compound 1 µM, first compound 0.01 µM): 22.1%
viability, T/C [7]: 13.7%
viability, T/C [8]: 8.36%
viability, T/C (second compound 3.16 µM, first compound 0.000316 µM): 42.6%
viability, T/C (second compound 3.16 µM, first compound 0.001 µM): 44.6%
viability, T/C (second compound 3.16 µM, first compound 0.00316 µM): 33.2%
viability, T/C (second compound 3.16 µM, first compound 0.01 µM): 21.3%
viability, T/C [9]: 11%
viability, T/C [10]: 7.2%
viability, T/C (second compound 10 µM, first compound 0.000316 µM): 38.9%
viability, T/C (second compound 10 µM, first compound 0.001 µM): 33.8%
viability, T/C (second compound 10 µM, first compound 0.00316 µM): 21.3%
viability, T/C (second compound 10 µM, first compound 0.01 µM): 17%
viability, T/C [11]: 10.4%
viability, T/C [12]: 7.51%

IC50 (second compound 0.0316 µM): > 10000 nM
IC50 (second compound 0.1 µM): 531 nM
IC50 (second compound 0.316 µM): 3290 nM
IC50 (second compound 1 µM): 493 nM
IC50 (second compound 3.16 µM): < 31.6 nM
IC50 (second compound 10 µM): < 31.6 nM
Structure (SMILES): C[C@@H](NC(=O)c1ncnc(N)c1Cl)c1ncc(C(=O)Nc2cc(C(F)(F)F)c(Cl)cn2)s1 + C#Cc1c(F)ccc2cc(O)cc(-c3ncc4c(N5CC6CCC(C5)N6)nc(OCC56CCCN5CC(F)C6)nc4c3F)c12
viability, T/C [1]: 57.8%
viability, T/C [2]: 58.3%
viability, T/C (second compound 0.0316 µM, first compound 0.316 µM): 59.8%
viability, T/C (second compound 0.0316 µM, first compound 1 µM): 54.3%
viability, T/C (second compound 0.0316 µM, first compound 3.16 µM): 57.4%
viability, T/C (second compound 0.0316 µM, first compound 10 µM): 46%
viability, T/C [3]: 65.5%
viability, T/C [4]: 58.3%
viability, T/C (second compound 0.1 µM, first compound 0.316 µM): 46.9%
viability, T/C (second compound 0.1 µM, first compound 1 µM): 47.3%
viability, T/C (second compound 0.1 µM, first compound 3.16 µM): 57.2%
viability, T/C (second compound 0.1 µM, first compound 10 µM): 42.3%
viability, T/C [5]: 62%
viability, T/C [6]: 55.7%
viability, T/C (second compound 0.316 µM, first compound 0.316 µM): 58.4%
viability, T/C (second compound 0.316 µM, first compound 1 µM): 53.2%
viability, T/C (second compound 0.316 µM, first compound 3.16 µM): 52.4%
viability, T/C (second compound 0.316 µM, first compound 10 µM): 37.9%
viability, T/C [7]: 61.2%
viability, T/C [8]: 48.4%
viability, T/C (second compound 1 µM, first compound 0.316 µM): 47.5%
viability, T/C (second compound 1 µM, first compound 1 µM): 51%
viability, T/C (second compound 1 µM, first compound 3.16 µM): 45.3%
viability, T/C (second compound 1 µM, first compound 10 µM): 33.5%
viability, T/C [9]: 51.3%
viability, T/C [10]: 49.1%
viability, T/C (second compound 3.16 µM, first compound 0.316 µM): 36.6%
viability, T/C (second compound 3.16 µM, first compound 1 µM): 54.4%
viability, T/C (second compound 3.16 µM, first compound 3.16 µM): 43.5%
viability, T/C (second compound 3.16 µM, first compound 10 µM): 32.7%
viability, T/C [11]: 41.1%
viability, T/C [12]: 38.2%
viability, T/C (second compound 10 µM, first compound 0.316 µM): 37.3%
viability, T/C (second compound 10 µM, first compound 1 µM): 37.5%
viability, T/C (second compound 10 µM, first compound 3.16 µM): 35.1%
viability, T/C (second compound 10 µM, first compound 10 µM): 22.8%
